Assay in all cases: NCI anticancer screen, dose series, 48 h
Assay [1] relates to RXF-631 renal.
In assay [2] the test system is DLD-1 colon.
The subject of assay [3] is M19-MEL melanoma.
Assay [4] deals with KM20L2 colon.
In assay [5] the test system is HOP-18 NSCLC.
For assay [6], the system named is DMS 273 small cell lung.
Assay [7] concerns XF 498 CNS.
Assay [8] concerns SNB-78 CNS.
In assay [9] the test system is MDA-N.

For 21 compounds, TGI results are on record in PubChem BioAssay (NCI).

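Step 1: Grow cells in 96-well plates. Step 2: Expose to compound for 48 hours at 5 concentrations. Step 3: Interpolate endpoints linearly; if unreached, use highest concentration. TGI denotes the concentration required for complete inhibition of growth.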

In the case of `CC(C)=C1CCC(CN(C)C)C1=O` (stereo not drawn), the TGI in assay [1] is over 100 µM; in assay [2], 36.8 µM; in assay [3], over 100 µM; in [4], 27.7 µM; in assay [5], 36.6 µM.

As to `CC(C)CCC[C@@H](C)C1CCC2[C@@H]3CC=C4C[C@@H](C(=O)NCCN(C)C)CC[C@]4(C)C3CC[C@@]21C` (stereo partly drawn), the TGI was over 100 µM in assay [6]; over 100 µM in assay [2]; 39.7 µM in assay [3]; over 100 µM in assay [4]; 66.6 µM in [5]; 48.7 µM in assay [7]. This compound also displayed a TGI in [8] of over 100 µM.

For the compound `O=[N+]([O-])c1cccc(C2=NOC(C3CCCCC3)C2)c1` (stereo not drawn), the TGI in assay [6], in assay [1], in [2], in assay [3], in assay [5] and in assay [8] was over 100 µM throughout.

With `COc1cc(/C=C2\[C@H]3c4c(c(OC)c(C)c(OC)c4OC)CC(C(=O)N2Cc2ccccc2)N3C)c(OC)c(C)c1OC`, the TGI in [6] was 38.6 µM; in [2], over 100 µM; in assay [3], 33.1 µM; in assay [4], 37.2 µM; in [5], 50.2 µM.

For the compound `COc1ccc(C(CC(=O)c2ccc3c(c2)OCO3)c2c(O)c3ccccc3oc2=O)cc1OC` (stereo not drawn), the TGI in assay [9] was over 100 µM.

For the compound `Cc1[nH]c2ccccc2c1C1Cc2ccccc2N1C(=O)C#Cc1ccc([N+](=O)[O-])cc1` (stereo not drawn), the TGI in [2], in assay [4], in assay [5], in assay [7] and in [8] was over 100 µM in each case.

As to `Cc1cccc(C2=C/C(=C(\SS/C(C(=O)c3ccc(OCC(=O)O)c(Cl)c3Cl)=C3\C=C(c4cccc(C)c4)SS3)C(=O)c3ccc(OCC(=O)O)c(Cl)c3Cl)SS2)c1`, the TGI in assay [6] is 83.6 µM; in assay [2], over 100 µM; in [3], over 60.1 µM; in assay [4], over 100 µM; in assay [5] it was 50.5 µM; in assay [7], 54.6 µM. The TGI in assay [8] was 80.6 µM.

Turning to `O=C(N/C(=C\c1ccc([N+](=O)[O-])cc1)c1nc2ccccc2[nH]1)c1ccccc1`, the TGI in assay [1], in [2], in [3], in [4], in assay [5] and in [8] was over 100 µM in each case.

On to `COC(c1ccc(C(C)(C)C)cc1)(c1ccc(C(C)(C)C)cc1)c1ccc(C(C)(C)C)cc1`, for which the TGI in assay [9] was over 100 µM.

`COC(=O)C1C(O)C(C(=O)OC)C(C)N(C)C1C` (stereo not drawn) gave a TGI in assay [9] of over 100 µM.

Turning to `Cc1ccc(C)c(N2C/C(=N\NC(=O)CC#N)C(c3nc4ccccc4s3)C(=O)C2=O)c1` (stereo not drawn), the TGI in [6], in [2], in [3], in assay [4], in assay [5] and in assay [7] was over 100 µM throughout. This compound had a TGI in assay [8] of over 100 µM.

As to `O=c1[nH]cnc(NC2C=C(CO)C(O)C2O)c1[N+](=O)[O-]` (stereo not drawn), the TGI is over 66.1 µM in [6]; over 100 µM in [2]; over 100 µM in assay [3]; over 100 µM in assay [4]; over 100 µM in assay [5]; over 100 µM in [7]. The TGI in assay [8] was over 100 µM.

For the compound `CC(=O)N1CCN(c2ccc(OCC3COC(Cn4ccnc4)(c4ccc(Cl)cc4Cl)O3)cc2)CC1` (stereo not drawn), the TGI is 61.4 µM in assay [6]; over 100 µM in assay [2]; 45.1 µM in assay [3]; over 100 µM in [4]; over 100 µM in assay [5].

Take `CC1=C(C#N)C(=O)CC(c2ccc(Cl)cc2)N(C)N1` (stereo not drawn): the TGI in assay [2], in assay [5], in assay [7] and in [8] was over 100 µM in each case.

As for `CCOC(=O)NC(=O)c1cn(C2CCCCC2)c(=O)[nH]c1=O`, the TGI in assay [6], in [1], in assay [2], in assay [3], in [4] and in assay [5] was over 100 µM in each case. Also, the TGI in assay [7] and in assay [8] was over 100 µM each time.

`CN(C)CCNCCN` showed a TGI in assay [9] of over 100 µM.

As for `Nc1nc(-c2ccc(Cl)c([N+](=O)[O-])c2)cs1`, the TGI in assay [6], in [1], in assay [2], in [3], in assay [4] and in [5] was over 100 µM each time. Moreover, the TGI was 86.6 µM in [7] and over 100 µM in assay [8].

On to `CCOP(=O)(OCC)C(C(=O)OC)C(=O)C(=O)Nc1ccc(Cl)cc1Cl` (stereo not drawn), for which the TGI in [6], in [2], in assay [3], in assay [4], in assay [5] and in [8] was over 100 µM each time.

As to `COC(=O)C(=O)C(C(C)=O)C(=O)NCc1ccc(OC)c(OC)c1` (stereo not drawn), the TGI in [6], in assay [1], in assay [2], in assay [3], in [4] and in [5] was over 100 µM each time. Moreover, the TGI in assay [7] and in [8] was over 100 µM throughout.

Consider `ClC(Cl)=C1C(=C(Cl)Cl)C(Cl)(Cl)C1(Cl)Cl`, for which the TGI in [6] came out at 9.87 µM; in assay [1], 13.9 µM; in [2], 3.3 µM; in assay [3], 9.1 µM; in [4] it was 11.3 µM; in [9], 2.81 µM. For the same compound, the TGI in assay [5] stood at 19.4 µM; in assay [8], 7.71 µM.

Regarding `O=C(CC(=O)C1CCOC1=O)C(=O)Nc1cccc(Cl)c1` (stereo not drawn), the TGI in [6], in [1], in [2], in assay [3], in assay [4] and in assay [5] was over 100 µM each time. Moreover, the TGI in assay [8] is over 100 µM.
